# In PubChem BioAssay AID1963843 (Molecular Pharmacology Branch, DTP, NCI, 2024):
# Where “and” joins values, the source holds several entries; their conditions need not be identical. Identical values can stand only once.
# System: 616215-338-R-J1-PDC complex spheroid viability
# Assay: Anticancer human tumor 616215-338-R-J1-PDC patient-derived colon adenocarcinoma cell line growth inhibition [POLQ]
# Settings: for viability, T/C: stronger effect = lower value
# Protocol: Multicellular complex tumor spheroid response to Polymerase (POL) inhibitors (novobiocin, ART-558, RP6685) in combination with a variety of drugs and investigational agents in selected tumor cell lines
# The POL inhibitors (novobiocin, ART-558, and RP6685) were evaluated both individually and in combination with standard of care and investigational anticancer small molecules within a complex spheroid model of solid tumors. . Complex spheroids include a stromal component modeled by human endothelial cells (HUVEC) and fibroblasts modeled by human mesenchymal stem cells (MSCs). The concentration ranges selected for each drug and investigational agent were based upon clinically achievable concentrations if the clinical Cmax of the agent was known.
# Compounds. The drugs and investigational agents: novobiocin (NSC847541), ART-558 (NSC835418), RP-6685 (NSC848927), peposertib (NSC802822), ceralasertib (NSC780249), elimusertib (NSC800525), camonsertib (NSC841442), AZD-1390 (NSC803789), olaparib (NSC753686), talazoparib (NSC767125), rucaparib (NSC756644), sotorasib (NSC818433), MRTX-1133 (NSC836407), SN-38 (NSC673596), topotecan (NSC609699), epotoside (NSC141540), doxorubicin (NSC123127), gemcitabine (NSC613327), 5-fluorouracil (NSC19893), paclitaxel (NSC125973), vemurafenib (NSC761431), MSA-2 (NSC828583), SN-011 (NSC837082), adavosertib (NSC754352), prexasertib (NSC758257), carboplatin (NSC241240) and oxaliplatin (NSC266046), were obtained from the National Cancer Institute (NCI) Developmental Therapeutics Program Chemical Repository (21). The FDA-approved anticancer drug set is available from the Developmental Therapeutics Program at https://dtp.cancer.gov/organization/dscb/obtaining/. […] The stock solutions were prepared in dimethyl sulfoxide (DMSO, Sigma-Aldrich, St. Louis, MO, cat. D2650), except for the platinum compounds which were prepared in saline (Quality Biological, Gaithersburg, MD, cat. 114-055-101), at 800-fold the tested concentration and stored at -70 degrees C prior to their use. All drugs and investigational agents were tested over a range starting from a high concentration at or near the clinical Cmax and decreasing in half-log increments. If the clinical Cmax for an agent had not been determined, the highest concentration tested was 10 microM, except for SN-38, which was tested at a high concentration of 1 microM.
# Cell Culture. All cells were maintained in an incubator at 37 degrees C and 5% CO2 with 95% humidity. The PDC lines were cultured according to standard operating procedures established by the NCI PDMR (https://pdmr.cancer.gov). Table 3 of the manuscript, lists the cell lines along with the number of the three cell types plated to form the mct-spheroids and media for tumor cell growth. After thawing, all PDC lines, except 997537-175-T-J1-PDC and 415267-285-R-J2-PDC, were cultured in Matrigel-coated flasks prepared with a working solution of 1X Ham's F-12 nutrient mix, without supplementation (Thermo Fisher Scientific, cat. 11765054), 100 U/mL penicillin-streptomycin (Thermo Fisher Scientific, cat. 15140122), and 2.5% Matrigel (Corning Inc., Corning, NY, cat. 354248) for the first three passages. The two PDC lines 997537-175-T-J1-PDC and 415267-285-R-J2-PDC were cultured on uncoated flasks. The 857933-349-R-J2-PDC line was cultured in 6C/Colon 1B media containing advanced DMEM/F-12 (Thermo Fisher Scientific, cat. 12634028), 10 mM HEPES (Thermo Fisher Scientific, cat. 15630080), 1X GlutaMAX supplement (Thermo Fisher Scientific, cat. 35050061), 0.1 mg/mL primocin (InvivoGen, San Diego, CA, cat. ant-pm-2), 10% defined fetal bovine serum, heat inactivated (HyClone Laboratories Inc., Logan, UT, cat. SH30070.03HI), 50% L-WRN conditioned media (ATCC, cat. CRL-3276), 1.25 mM N-Acetyl-L-cysteine (Sigma-Aldrich, cat. A9165), 10 mM nicotinamide (Sigma-Aldrich, cat. N0636), 1X B-27 supplement (Thermo Fisher Scientific, cat. 17504044), 1X N-2 supplement (Thermo Fisher Scientific, cat. […]
# [1] = compound alone, run of 12/05/2023
# 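Note: spheroids exposed to compounds for one week before readout.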
# 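Throughout, for viability, T/C: percent viability relative to DMSO vehicle wells taken as 100%.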
smiles,measurement,setting,value
COc1cc2cc(C(=O)CCC(=O)O)sc2cc1OC + COC1C(OC(N)=O)C(O)C(Oc2ccc3c(O)c(NC(=O)c4ccc(O)c(CC=C(C)C)c4)c(=O)oc3c2C)OC1(C)C,IC50,"curve of first compound, second compound 0.0316 µM",> 10 µM
same,IC50,"curve of first compound, second compound 0.1 µM",> 10 µM
same,IC50,"curve of first compound, second compound 0.316 µM",> 10 µM
same,IC50,"curve of first compound, second compound 1 µM",> 10 µM
same,IC50,"curve of first compound, second compound 3.16 µM",> 10 µM
same,IC50,"curve of first compound, second compound 10 µM",> 10 µM
same,"viability, T/C","second compound 0.0316 µM, first compound 0.0316 µM",110%
same,"viability, T/C","second compound 0.0316 µM, first compound 0.1 µM",103%
same,"viability, T/C","second compound 0.0316 µM, first compound 0.316 µM",102%
same,"viability, T/C","second compound 0.0316 µM, first compound 1 µM",105%
same,"viability, T/C","second compound 0.0316 µM, first compound 3.16 µM",102%
same,"viability, T/C","second compound 0.0316 µM, first compound 10 µM",113%
same,"viability, T/C","second compound 0.1 µM, first compound 0.0316 µM",95.4%
same,"viability, T/C","second compound 0.1 µM, first compound 0.1 µM",101%
same,"viability, T/C","second compound 0.1 µM, first compound 0.316 µM",109%
same,"viability, T/C","second compound 0.1 µM, first compound 1 µM",97.7%
same,"viability, T/C","second compound 0.1 µM, first compound 3.16 µM",103%
same,"viability, T/C","second compound 0.1 µM, first compound 10 µM",97.2%
same,"viability, T/C","second compound 0.316 µM, first compound 0.0316 µM",115%
same,"viability, T/C","second compound 0.316 µM, first compound 0.1 µM",94.9%
same,"viability, T/C","second compound 0.316 µM, first compound 0.316 µM",107%
same,"viability, T/C","second compound 0.316 µM, first compound 1 µM",95.1%
same,"viability, T/C","second compound 0.316 µM, first compound 3.16 µM",101%
same,"viability, T/C","second compound 0.316 µM, first compound 10 µM",101%
same,"viability, T/C","second compound 1 µM, first compound 0.0316 µM",102%
same,"viability, T/C","second compound 1 µM, first compound 0.1 µM",88.2%
same,"viability, T/C","second compound 1 µM, first compound 0.316 µM",106%
same,"viability, T/C","second compound 1 µM, first compound 1 µM",98.7%
same,"viability, T/C","second compound 1 µM, first compound 3.16 µM",99.7%
same,"viability, T/C","second compound 1 µM, first compound 10 µM",106%
same,"viability, T/C","second compound 3.16 µM, first compound 0.0316 µM",107%
same,"viability, T/C","second compound 3.16 µM, first compound 0.1 µM",99.9%
same,"viability, T/C","second compound 3.16 µM, first compound 0.316 µM",109%
same,"viability, T/C","second compound 3.16 µM, first compound 1 µM",102%
same,"viability, T/C","second compound 3.16 µM, first compound 3.16 µM",99.6%
same,"viability, T/C","second compound 3.16 µM, first compound 10 µM",113%
same,"viability, T/C","second compound 10 µM, first compound 0.0316 µM",109%
same,"viability, T/C","second compound 10 µM, first compound 0.1 µM",91.7%
same,"viability, T/C","second compound 10 µM, first compound 0.316 µM",102%
same,"viability, T/C","second compound 10 µM, first compound 1 µM",104%
same,"viability, T/C","second compound 10 µM, first compound 3.16 µM",97%
same,"viability, T/C","second compound 10 µM, first compound 10 µM",102%
Cn1ncnc1[C@H]1c2n[nH]c(=O)c3cc(F)cc(c23)N[C@@H]1c1ccc(F)cc1,"viability, T/C",compound 0.000316 µM,90.3% and 102% and 97.5%
same,"viability, T/C",compound 0.001 µM,104% and 91.8% and 103%
same,"viability, T/C",compound 0.00316 µM,102% and 98.1% and 97.2%
same,"viability, T/C",compound 0.01 µM,94% and 95.9% and 104%
same,"viability, T/C",compound 0.0316 µM,110% and 96.1% and 101%
same,"viability, T/C",compound 0.1 µM,105% and 87.5% and 106%
same,IC50,curve of compound,> 0.1 µM
C=CC(=O)N1CCN(c2nc(=O)n(-c3c(C)ccnc3C(C)C)c3nc(-c4c(O)cccc4F)c(F)cc23)C(C)C1 (stereo not given),"viability, T/C",compound 0.0316 µM,104% and 100% and 91.5%
same,"viability, T/C",compound 0.1 µM,94.8% and 103% and 100%
same,"viability, T/C",compound 0.316 µM,97.3% and 99.3% and 98.2%
same,"viability, T/C",compound 1 µM,97.3% and 97.5% and 99.1%
same,"viability, T/C",compound 3.16 µM,103% and 90.9% and 104%
same,"viability, T/C",compound 10 µM,87.7% and 66.7% and 91.4%
same,IC50,curve of compound,> 10 µM
Nc1ccc(C#CCN(C(=O)Cc2ncc(C(F)(F)F)cc2C(F)(F)F)c2ccc(F)cc2)nn1,"viability, T/C",compound 0.0316 µM,103% [middle of 13 runs]
same,"viability, T/C",compound 0.1 µM,104% [middle of 13 runs]
same,"viability, T/C",compound 0.316 µM,105% [middle of 13 runs]
same,"viability, T/C",compound 1 µM,102% [middle of 13 runs]
same,"viability, T/C",compound 3.16 µM,102% [middle of 13 runs]
same,"viability, T/C",compound 10 µM,94.5% [middle of 13 runs]
same,IC50,[1],> 10 µM
O=C(Nc1ccc(O)c(NS(=O)(=O)c2ccc(F)cc2)c1)c1ccc(-c2ccccc2)cc1,"viability, T/C",compound 0.0316 µM,104% and 110% and 106%
same,"viability, T/C",compound 0.1 µM,107% and 100% and 90.8%
same,"viability, T/C",compound 0.316 µM,107% and 108% and 104%
same,"viability, T/C",compound 1 µM,108% and 92.6% and 100%
same,"viability, T/C",compound 3.16 µM,102% and 106% and 114%
same,"viability, T/C",compound 10 µM,60.7% and 49.2% and 101%
same,IC50,curve of compound,> 10 µM and 9.86 µM
Cc1cccc(N(C)C(=O)C2C(O)CCN2c2nc(C)cc(C(F)(F)F)c2C#N)c1 (stereo not given),"viability, T/C",compound 0.0316 µM,97.4% [middle of 13 runs]
same,"viability, T/C",compound 0.1 µM,99% [middle of 13 runs]
same,"viability, T/C",compound 0.316 µM,100% [middle of 13 runs]
same,"viability, T/C",compound 1 µM,105% [middle of 13 runs]
same,"viability, T/C",compound 3.16 µM,104% [middle of 13 runs]
same,"viability, T/C",compound 10 µM,102% [middle of 12 runs]
same,IC50,"compound alone, run of 11/27/2023",> 10 µM
same,IC50,[1],> 10 µM
COc1cccc2c1C(=O)c1c(O)c3c(c(O)c1C2=O)CC(O)(C(=O)CO)CC3OC1CC(N)C(O)C(C)O1 (stereo not given),"viability, T/C",compound 0.0316 µM,95.8% and 65% and 107%
same,"viability, T/C",compound 0.1 µM,89.2% and 52.3% and 101%
same,"viability, T/C",compound 0.316 µM,78.2% and 37.8% and 76.8%
same,"viability, T/C",compound 1 µM,60.1% and 25.3% and 60.5%
same,"viability, T/C",compound 3.16 µM,7.28% and 2.34% and 9.83%
same,"viability, T/C",compound 10 µM,0.55% and 0.17% and 0.93%
same,IC50,curve of compound,1.19 µM and 0.133 µM and 1.06 µM
